Assays:
AHR [1] = assay: AHR activation in IEC-6 enterocytes (Cyp1a1 expression); type: cell-based, rat; conditions: A18, 6 hours
Procedure: The intestinal epithelial cells line IEC-6 (ATCC CRL-1592) was stably transduced with lentiviral particles containing Cignal Lenti XRE Reporter (luc) (Qiagen). Cells were treated serially with individual chemicals contained within the Johns Hopkins Drug Library (JHDL), which contains a series of FDA-approved drugs, Chong et al., 2006, (kindly provided by Dr. Jun O. Liu, Johns Hopkins University) at 10 μM for 24 hours, and the luciferase activity was quantified using the SpectraMax M3 (Molecular Devices).
(§1) Total RNA was isolated using the RNeasy mini kit (Qiagen) and complementary DNA was synthesized from 0.5 μg RNA using QuantiTect Reverse Transcription kit (Qiagen) following the manufacturer's protocols. The mRNA quantification was performed on the Bio-Rad CFX96 Real-Time System (Bio-Rad) using iTaq™ universal SYBR® Green supermix (Bio-Rad) and the primers listed in Table 1. The relative mRNA expression levels were normalized against the expression of the housekeeping gene ribosomal protein lateral stalk subunit P0 (Rplp0). For microRNA isolation, freshly harvested, snap-frozen ileal tissue was subjected to total RNA isolation using the RNeasy plus universal mini kit (Qiagen) and miRNA was quantified using miScript PCR starter kit (Qiagen) following the manufacturer's protocols. The relative miRNA expression levels were normalized against the expression of housekeeping miRNA miR-191.

TLR4 [2] = assay: TLR4 signaling and expression in human ileal explant culture (LPS); type: cell-based
Description: (§2) De-identified human ileal samples were collected via waiver of consent from the Office of Human Subjects Research Review Boards at Johns Hopkins University (IRB00094036), during surgery for NEC or at the time of stoma closure. For RNA isolation and qRT-PCR analysis, fresh samples were snapfrozen in liquid nitrogen immediately. For human explant culture, fresh ileum samples from NEC patients or patient undergoing stoma re-anastomosis were washed with sterile phosphate-buffered saline containing gentamycin (5 μg/mL), minced into 2- to 4-mm diameter pieces, and then cultured in Dulbecco's modified Eagle growth medium supplemented with 10% fetal bovine serum, 4 μg/mL human recombinant insulin and 100 μg/mL Primocin. Human ilea explant cultures were then pre-treated with 200 μM I3C or 20 μM A18 for 15 minutes, and then with 50 μg/mL LPS for 6 hours, then processed for total RNA isolation followed by qRT-PCR.
as §1

mouse NEC model = assay: Experimental NEC in newborn mice (Example 1); type: in vivo
[3] = cited from earlier work
AHR [4] = assay: AHR activation in human ileal explant culture (Cyp1a1 qRT-PCR); type: cell-based; conditions: 200 μM I3C or 20 μM A18, 15 minutes pre-treatment then 6 hours
Description: as §2, with “Human ilea explant cultures were then pre-treated with 200 μM I3C or 20 μM A18 for 15 minutes, and then with 50 μg/mL LPS for 6 hours, then processed for total RNA isolation followed by qRT-PCR.” left out
as §1, with “The relative mRNA expression levels were normalized against the expression of the housekeeping gene ribosomal protein lateral stalk subunit P0 (Rplp0).” left out, “The relative miRNA expression levels were normalized against the expression of housekeeping miRNA miR-191.” left out

AHR [5] = assay: AHR activation in mouse intestine in vivo (Cyp1a1 expression by qRT-PCR); conditions: for Cyp1a1 expression in the intestinal epithelium: fed I3C 25 mg/kg/day or A18 300 mg/kg/day
Procedure: Hits were validated for activation of AHR signaling by oral gavage into neonatal C57/B16 mice (p11), and measuring the expression of the AHR activation reporter Cyp1a1 by qRT-PCR in the intestinal mucosa 24 hours later. The lead compound from these studies is herein labelled “A18”. Additionally, the mice were subjected to hypoxia (5% 02-95% N2) for 10 min in a hypoxia chamber (Billups-Rothenberg) twice daily for 4 days. […] To test the protective effect of breast milk on AHR signaling a NEC, human breast milk (Innovative Research) was supplemented to the formula at the final concentration of 5%. Endotoxemia was induced in neonatal mouse pups (p11) by administering 5 mg/kg lipopolysaccharides (LPS) via intraperitoneal injection, and ileal samples were harvested 6 hours after LPS treatments. […] I3C and A18 were administered to the pregnant mother daily until the offspring were studied further for experimental NEC or endotoxemia as above. […] The mRNA quantification was performed on the Bio-Rad CFX96 Real-Time System (Bio-Rad) using iTaqTM universal SYBR® Green supermix (Bio-Rad) and the primers listed in Table 1. The relative mRNA expression levels were normalized against the expression of the housekeeping gene ribosomal protein lateral stalk subunit P0 (Rplp0). For microRNA isolation, freshly harvested, snap-frozen ileal tissue was subjected to total RNA isolation using the RNeasy plus universal mini kit (Qiagen) and miRNA was quantified using miScript PCR starter kit (Qiagen) following the manufacturer's protocols. The relative miRNA expression levels were normalized against the expression of housekeeping miRNA miR-191.

TLR4 [6] = assay: TLR4 signaling and Tlr4 expression in newborn mouse ileum in vivo (endotoxemia model, LPS)
Procedure: Endotoxemia was induced in neonatal mouse pups (p11) by administering 5 mg/kg lipopolysaccharides (LPS) via intraperitoneal injection, and ileal samples were harvested 6 hours after LPS treatments. […] I3C and A18 were administered to the pregnant mother daily until the offspring were studied further for experimental NEC or endotoxemia as above. […] The mRNA quantification was performed on the Bio-Rad CFX96 Real-Time System (Bio-Rad) using iTaqTM universal SYBR® Green supermix (Bio-Rad) and the primers listed in Table 1. The relative mRNA expression levels were normalized against the expression of the housekeeping gene ribosomal protein lateral stalk subunit P0 (Rplp0). For microRNA isolation, freshly harvested, snap-frozen ileal tissue was subjected to total RNA isolation using the RNeasy plus universal mini kit (Qiagen) and miRNA was quantified using miScript PCR starter kit (Qiagen) following the manufacturer's protocols. The relative miRNA expression levels were normalized against the expression of housekeeping miRNA miR-191.

[7] = A18 administered during pregnancy
[8] = wild-type newborn mice, A18 300 mg/kg body weight/day for 4 days, oral

In the case of `Cc1c(OCC(F)(F)F)ccnc1C[S+]([O-])c1nc2ccccc2[nH]1` (centres unmarked) [A18, Lansoprazole], the “Cyp1a1 expression in IEC-6 enterocytes” value (AHR [1]) is reported as “induced the expression of Cyp1a1”, the “Tlr4 expression in human intestine ex vivo” value (TLR4 [2]; 20 μM A18, LPS 50 μg/mL for 6 hours) is reported as “significantly reduced” and the “LPS-induced Tnf-a expression in human intestinal explant cultures” value (TLR4 [2]; 200 μM I3C or 20 μM A18, LPS 50 μg/mL for 6 hours) is reported as “significantly reduced LPS-induced Tnf-a expression”. For the same molecule, the “inflammation in the intestine of human resected at the time of surgery for NEC” value (TLR4 [2]; summary statement) was “dampened inflammation”, the “Tlr4 expression in the neonatal gut (NEC)” value (mouse NEC model; [7]) was “reduced” and the “Tnf-a expression in the neonatal gut (NEC)” value (mouse NEC model; [7]) was “reduced Tnf-a”. The “histology and NEC severity” value (mouse NEC model; [7]) was “improved histology and NEC severity”, the “NEC severity in the offspring” value (mouse NEC model; A18 administered during pregnancy (M-A18, 300 mg/kg body weight/day)) was “significantly reduced NEC severity” and the “prevention and treatment of NEC in mouse models” value (mouse NEC model; summary statement) was “effectively prevented and treated NEC”. The NEC severity (mouse NEC model; wild-type mice, oral to pups during NEC induction: I3C 25 mg/kg/day, A18 300 mg/kg/day, or human breast milk 5% in formula) was “significantly reduced NEC severity”, the NEC severity score (mouse NEC model; [8]) was “improved NEC severity score” and the “expression of I16 (NEC)” value (mouse NEC model; [8]) was “reduced expression of I16”. The “histology of the terminal ileum (NEC)” value (mouse NEC model; [8]) was “improved histology”, the “bound in human plasma” value ([3]; human plasma) was “approximately 97%” and the plasma elimination half-life ([3]; in humans) was “approximately 2 h”. The absorption ([3]; in vivo) was “rapidly absorbed”, the “metabolism by CYP3A4 and CYP2C18” value ([3]; in vivo) was “extensively metabolized” and the “Cyp1a1 expression in human intestinal explant cultures” value (AHR [4]) was “significantly induced Cyp1a1 expression”. The “Cyp1a1 expression in the offspring pup intestine” value (AHR [5]; A18 administered during pregnancy, 300 mg/kg body weight/day) was “induced the expression of Cyp1a1”, the “Cyp1a1 expression in the intestinal epithelium” value (AHR [5]; Ahr^−/− newborn mice) was “not” and the “Cyp1a1 expression in the intestinal epithelium” value (AHR [5]; wild-type newborn (p11) mice) was “induced the expression of Cyp1a1”. For the same molecule, the “Tlr4 expression in the intestinal mucosa / newborn ileum” value (TLR4 [6]; wild-type mice, fed I3C or A18) was “reduced Tlr4 expression” and the “TLR4 (LPS)-induced 116 expression in the intestine” value (TLR4 [6]; wild-type newborn mice, fed A18 (300 mg/kg/day) or oral breast milk) was “significantly reduced TLR4-induced 116 expression”.

Reference: patent US20230357261A1, “ARYL HYDROCARBON RECEPTOR LIGANDS AND THEIR ANALOGUES FOR THE PREVENTION AND TREATMENT OF INFLAMMATORY DISORDERS” (The Johns Hopkins University, priority 2020, published 2023)
